Experimental data reported in EP0412508A1, “Analogues of vasopressin, their preparation and pharmaceutical use” (CESKOSLOVENSKA AKADEMIE VED, priority 1989, dated 1991).

Assays:
[1] = tested on: despinalisierten Rattenmännchen; experiment: pressor activity on despinalised male rats according to Krejci et al.; type: in vivo, Ratten; conditions: agonistic activity
From the text: (§1) Die biologische Wirksamkeit wurde an Ratten bestimmt: Die uterotonische (agonistische oder inhibitorische) Wirksamkeit wurde nach Holton (Holton, J. Brit. J. Pharmacol. 3, 328, 1948) in der Bearbeitung nach Munich (Endocrinology 66, 451, 1960) bestimmt; die inhibitorische Aktivität wurde ausgedrückt als pA2 (Eggen et al., J. Gen. Physiol. 56, 250, 1970), die pressorische Wirksamkeit wurde an despinalisierten Rattenmännchen nach Krejci et al., (Brit. J. Pharm. Chemother. 30, 497, 1967) bestimmt, die antidiuretische nach Burn (Burn et al., Biol. Stand., Oxford Univ. Press London 1950). Als Standard wurde für den antidiuretischen Test das [1-Desamino,8-D-Arginin]-Vasopressin (dDAVP) verwendet. Eine Übersicht der biologischen Wirksamkeiten ist der Tabelle 1 zu entnehmen.

Ratten [2] = experiment: uterotonic (agonistic or inhibitory) activity according to Holton, modified by Munsick (printed 'Munich'); conditions: inhibitory activity expressed as pA2, rat
From the text: as §1

Ratten [3] = experiment: antidiuretic activity according to Burn, standard dDAVP; type: in vivo; conditions: rat; relative to standard [1-Desamino,8-D-Arginin]-Vasopressin (dDAVP)
From the text: as §1

[2-p-Methyl-phenylalanin,8-D-Homoarginin]-Vasopressin
Pressorische Wirksamkeit [1]: 0,04 IU/mg | Uterotonische Wirksamkeit, pA₂ (Ratten [2]): pA₂ = 6,85 | Antidiuretische Wirksamkeit (% dDAVP) (Ratten [3]): < 0,1 % dDAVP
